Here are results for 4 sequences from US8017584B2, “GD3-mimetic peptides” (Otsuka Pharmaceutical Co., Ltd., priority 2000, dated 2011).

For one assay, the system named is anti-GD3 antibody 4F6. Nature of the assay: ELISA of MAPs immobilized at various amounts with 4F6 (Example 5(2), FIG. 3). Format: binding, mouse. The conditions noted are these: MAPs or GD3 immobilized at various amounts. From the text: (1) In a manner similar to that described in Example 3, peptides of N-terminus 9 amino acid residues or C-terminus 9 amino acid residues of GD3R1, GD3R2, GD3R3, or GD3R4. The nomenclature and sequences of respective peptides employed in the present test are shown in FIG. 2 These were employed as multi-antigen peptides (MAPs). (2) In order to extend the research on bonding between the anti-GD3 antibody 4F6 and each of the GD3-mimetic peptides shown in FIG. 1, multi-antigen peptides (MAPs) were subjected to ELISA. MAP samples having a variety of concentrations shown on the X-axis in FIG. 3 were provided, and each sample was immobilized onto the wells of a 96-well plate. Subsequently, the wells were blocked with a blocking solution (TBS supplemented with 1% BSA, 0.1% skim milk, and 0.02% Tween 20) at 4° C. overnight. 4F6 (hybridoma supernatant: used in the neat form) was added (100 μL/well) for reaction at room temperature for 2 hours. After completion of reaction, the supernatant was discarded, and the wells were washed with a washing solution (TBS supplemented with 1% FBS and 0.05% Tween 20) six times. Subsequently, the wells were allowed to react with peroxidase-labeled anti-mouse IgG (diluted 1,000-fold with a blocking solution) at room temperature for 2 hours. The wells were again washed with a washing solution four times, and the amount of peroxidase enzyme remaining in each well was detected and quantitatively determined with the substrate TMB, whereby binding of MAP to 4F6 was investigated. The test was performed in triplicate, and the values in the graph are “mean ±SD.”
Background: ELISA stands for enzyme-linked immunosorbent assay.

The subject of assay [1] is binding between GD3 and 4F6 (anti-GD3 antibody). Nature of the assay: Inhibition by immobilized MAPs of binding between GD3 and 4F6 (Example 5(3), FIG. 4). Also on record: species or system mouse. The conditions noted are these: immobilized MAP or GD3 absorbs 4F6. The procedure: (3) The binding affinity shown in FIG. 3 was investigated in another method. Briefly, MAP samples having a variety of concentrations shown on the X-axis in FIG. 4 were provided. Each sample was immobilized onto the wells of a 96-well plate, and the wells were allowed to react with 4F6 (100 μL/well) at 4° C. overnight. On the following day, the supernatant (80 μL) was collected and added to the wells of another plate to which GD3 had been immobilized in advance (100 ng/well) for reaction at room temperature for 2 hours. After completion of reaction, the amount of antibody 4F6 that had been condensed with GD3 (i.e., that had not been absorbed by MAP) was detected and quantitatively determined through the method described (2) above, whereby inhibitory effect of MAP on binding of GD3 to 4F6 was investigated. The test was performed in triplicate, and the values in the graph are “mean ±SD.”

The subject of assay [2] is binding between GD3 and 4F6. Nature of the assay: Inhibition by exogenously added MAPs of binding between GD3 and 4F6 (Example 5(4), FIG. 5). The conditions noted are these: for inhibitory effect of exogenously added sample on binding between GD3 and 4F6 (words, FIG. 5): added simultaneously with 4F6 to GD3 100 ng/well; for order of binding strength to 4F6: deduced from FIG. 5. Also on record: species or system mouse. The procedure:
(4) Next, investigation was made as to whether binding between GD3R3 or GD3R4 and 4F6 occurred at the GD3 binding site of 4F6. To the wells of a plate to which GD3 had been immobilized (100 ng/well), each of the MAP samples having a variety of concentrations shown on the X-axis in FIG. 5 and 4F6 (100 μL/well) were simultaneously added, whereby an inhibitory test was performed. The test was performed in triplicate, and the values in the graph are “mean ±SD.”

Assay [3] can be described thus: Titer against GD3 (ELISA) of antiserum from mice immunized with MAP peptides (Example 4). It counts as in vivo, mice (C57BL/6). The conditions noted are these: for reactivity of antiserum with GD3 (ELISA absorbance): individual mice. Here is the method: Four species of GD3-mimetic peptide (MAP) obtained in Example 3 (2) was dissolved in PBS so as to attain a concentration of 200 μg/mL. The solution was added to Freund's complete (or incomplete) adjuvant (1:1, by volume), to thereby prepare an emulsion.
Eight mice (C57BL/6) were immunized by subcutaneous administration of the above emulsion (0.2 mL/mouse, in one administration, […]). Administration was performed every two weeks (for the second and subsequent administrations, Freund's incomplete adjuvant was used). After one week following respective administrations, blood was collected from the tail of each mouse, to thereby yield antiserum.
The antiserum obtained directly after the first administration will be referred to “1-st,” that obtained after the second administration will be referred to “2-nd,” and that obtained after the third administration will be referred to “3-rd.”
The titer, against GD3, of each of the antiserum samples (3×8 mice=24 samples) obtained in the (1) above was measured through ELISA as described below.
The thus-obtained purified GD3 was dissolved in methanol, whereby a GD3 solution having a concentration of 10 μg/mL was prepared. The GD3 solution was added to the wells of a 96-well micro-titer plate in amounts of 10 μL per well (which corresponds to 100 ng GD3 per well), and methanol was evaporated. Subsequently, a blocking solution (TBS supplemented with 1% BSA) was added to the wells in amounts of 50 μL per well, for blocking at 37° C. for 4 hours.
The supernatant was discarded. Each of the antiserum samples obtained in (1) above was diluted 100-fold, 400-fold, or 1,600 fold with the above-mentioned blocking solution. The diluted antiserum (50 μL) was added to each well for reaction at 4° C. overnight. The well was washed six times with TBS, and thereafter, HRP-labeled […] diluted 5,000-fold with the blocking solution was added (50 μL per well) for reaction for 2 hours at room temperature. The well was washed four times with TBS, and thereafter, enzymatic activity (peroxidase) of the well was detected with TMB solution (50 μL). The reaction was stopped with 1N HCl (50 μL), and the value corresponding to “420 nm-620 nm” was calculated.
A control sample was prepared as follows. […] The synthesized peptide was administered to a mouse for immunization, and the obtained antiserum served as a control sample. The titer of the control sample was obtained in a manner similar to that described above. (However, the number of provided mice was five, and only a 100-fold diluted solution was used.) This control peptide sample was also used in the form of MAP as described above.

Where [4] appears, read: antiserum 1st (after first administration), dilution factor 1/100, MAP 5 μg/mouse s.c.
Where [5] appears, read: antiserum 1st, dilution factor 1/400.
Setting [6] is: antiserum 1st, dilution factor 1/1600.
Setting [7] is: antiserum 2nd (after second administration), dilution factor 1/100.
The mark [8] stands for this setting: antiserum 2nd, dilution factor 1/400.
Setting [9] is: antiserum 2nd, dilution factor 1/1600.
[10] abbreviates: antiserum 3rd (after third administration), dilution factor 1/100.
Setting [11] is: antiserum 3rd, dilution factor 1/400.
Setting [12] is: antiserum 3rd, dilution factor 1/1600.

Several values for one entry are separate records, joined by “and”; a condition that tells them apart may be missing. Equal values may be shown once.

Turning to “RHAYRSMAEWGFLYS (RHAYRSMAQWGFLYS) [GD3R4, tested as phage clone, MAP form or peptide]”, the “binding of 4F6 to immobilized sample (words, FIG. 3)” value with anti-GD3 antibody 4F6 is “in an amount-dependent manner”. Also, in assay [1], the “inhibition of GD3 binding to 4F6 by immobilized sample (words, FIG. 4)” value is “inhibit GD3 from binding to the antibody”. The “inhibitory effect of exogenously added sample on binding between GD3 and 4F6 (words, FIG. 5)” value in assay [2] is on record as “did not”. Further, the “order of binding strength to 4F6” value in assay [2] is given as “GD3>GD3R3>GD3R4”. Also, the “reactivity of antiserum with GD3 (ELISA absorbance)” value (“reactivity … (ELISA absorbance)” for short) is 0.071 and 0.247 and 0.086 (2×) and 0.08 and 0.063 and 0.082 and 0.042 in assay [3] (setting [4]); 0.047 and 0.108 and 0.033 and 0.041 and 0.034 and 0.037 and 0.032 and 0.021 in assay [3] (setting [5]); 0.014 (2×) and 0.052 and 0.009 and 0.008 and 0.006 and 0.012 and 0.007 in assay [3] (setting [6]); 0.08 and 0.164 and 0.195 and 0.153 and 0.124 and 0.147 and 0.05 and 0.122 in assay [3] (setting [7]); 0.07 and 0.114 and 0.128 and 0.093 and 0.106 and 0.079 and 0.057 and 0.058 in assay [3] (setting [8]); 0.022 and 0.026 and 0.062 and 0.033 and 0.031 and 0.041 and 0.013 and 0.019 in assay [3] (setting [9]). For the same sequence, the “reactivity … (ELISA absorbance)” value in assay [3] (setting [10]) was 0.088 and 0.176 and 0.253 and 0.19 and 0.168 and 0.113 and 0.147 and 0.116; in assay [3] (setting [11]), 0.042 and 0.093 and 0.111 and 0.104 and 0.098 and 0.045 and 0.061 and 0.053; in assay [3] (setting [12]), 0.008 and 0.029 and 0.026 and 0.022 and 0.039 and 0.013 (2×) and 0.024. Moreover, in assay [3] (peptide used as immunogen (MAP)), the “reactivity of antiserum with GD3” value is recorded as “high reactivity with GD3”.

For the sequence “PHFDSLLYPCELLGC (PHFDSLLYPCQLLGC) [GD3R2, tested as phage clone, MAP form or peptide]”, the “reactivity … (ELISA absorbance)” value was 0.042 and 0.114 and 0.087 and 0.155 and 0.076 and 0.084 and 0.316 and 0.062 in assay [3] (setting [4]); 0.031 and 0.068 and 0.05 and 0.078 and 0.055 and 0.044 and 0.252 and 0.035 in assay [3] (setting [5]); 0.053 and 0.028 (2×) and 0.045 and 0.014 and 0.034 and 0.179 and 0.022 in assay [3] (setting [6]); 0.183 and 0.135 and 0.142 and 0.131 and 0.115 and 0.072 and 0.069 and 0.34 in assay [3] (setting [7]); 0.078 and 0.049 and 0.071 and 0.034 and 0.091 and 0.039 and 0.047 and 0.241 in assay [3] (setting [8]); 0.039 and 0.035 and 0.025 and 0.016 (2×) and 0.033 and 0.034 and 0.13 in assay [3] (setting [9]). Besides, the “reactivity … (ELISA absorbance)” value is 0.08 and 0.053 and 0.057 and 0.184 and 0.09 and 0.05 and 0.098 and 0.113 in assay [3] (setting [10]); 0.075 and 0.053 and 0.084 and 0.161 and 0.089 and 0.059 and 0.086 and 0.099 in assay [3] (setting [11]); 0.023 (2×) and 0.014 and 0.008 and 0.053 and 0.028 and 0.012 and 0.036 in assay [3] (setting [12]).

In the case of “GLAPPDYAERFELLS [GD3R3, tested as phage clone, MAP form or peptide]”, in the assay on anti-GD3 antibody 4F6, the “binding of 4F6 to immobilized sample (words, FIG. 3)” value was “in an amount-dependent manner”. Moreover, the “inhibition of GD3 binding to 4F6 by immobilized sample (words, FIG. 4)” value in assay [1] is “inhibit GD3 from binding to the antibody”. For the same sequence, the “inhibitory effect of exogenously added sample on binding between GD3 and 4F6 (words, FIG. 5)” value in assay [2] is “exhibited inhibitory effect”. The “order of binding strength to 4F6” value in assay [2] is “GD3>GD3R3>GD3R4”. Moreover, the “binding to anti-GD3 antibody 4F6, overall conclusion” value in assay [2] (taken together, Example 5) is recorded as “the strongest in binding”. In addition, the “reactivity … (ELISA absorbance)” value in assay [3] (setting [4]) was 0.105 and 0.062 (2×) and 0.098 and 0.051 and 0.04 and 0.165 and 0.169; in assay [3] (setting [5]), 0.077 and 0.004 and 0.048 and 0.016 and 0.026 and 0.067 and 0.071 and 0.083; in assay [3] (setting [6]), 0.009 and 0.016 and 0.006 and 0.023 and 0.003 and 0.031 and 0.015 and 0.017; in assay [3] (setting [7]), 0.116 and 0.098 and 0.08 (2×) and 0.165 and 0.132 and 0.135 and 0.179; in assay [3] (setting [8]) it was 0.078 and 0.079 and 0.112 and 0.118 and 0.088 (2×) and 0.076 and 0.054; in assay [3] (setting [9]), 0.025 (2×) and 0.034 and 0.022 and 0.027 and 0.018 and 0.07 and 0.024. Also, the “reactivity … (ELISA absorbance)” value in assay [3] (setting [10]) is 0.126 and 0.143 and 0.069 and 0.189 (2×) and 0.073 and 0.098 and 0.047; in assay [3] (setting [11]), 0.039 and 0.032 and 0.028 and 0.073 and 0.033 and 0.03 and 0.023 and 0.022; in assay [3] (setting [12]) it was 0.027 and 0.026 and 0.018 (3×) and 0.017 and 0.013 and 0.016.

Regarding “LAPPRPRSELVFLSV (LAPPRPRSQLVFLSV) [GD3R1, tested as phage clone, MAP form or peptide]”, the “reactivity … (ELISA absorbance)” value was 0.047 and 0.106 and 0.03 and 0.055 and 0.059 and 0.061 and 0.034 and 0.052 in assay [3] (setting [4]); 0.026 and 0.057 and 0.024 and 0.052 and 0.034 and 0.027 and 0.017 and 0.039 in assay [3] (setting [5]); 0 (3×) and 0.005 and 0.008 and 0.016 and 0.004 and 0.007 in assay [3] (setting [6]); 0.087 and 0.14 and 0.188 and 0.102 and 0.117 and 0.168 and 0.054 and 0.082 in assay [3] (setting [7]); 0.027 and 0.063 and 0.088 and 0.074 and 0.047 and 0.06 and 0.039 and 0.026 in assay [3] (setting [8]); 0.016 and 0.022 and 0.034 and 0.019 (2×) and 0.014 and 0.024 and 0.01 in assay [3] (setting [9]). The “reactivity … (ELISA absorbance)” value in assay [3] (setting [10]) was 0.068 and 0.066 and 0.084 (2×) and 0.139 and 0.121 and 0.08 and 0.023; in assay [3] (setting [11]), 0.019 and 0.017 and 0.03 (2×) and 0.054 and 0.021 and 0.051 and 0.01; in assay [3] (setting [12]), 0 (2×) and 0.002 and 0.008 and 0.003 (2×) and 0.001 and 0.004.
